Values joined by “and” are separate entries in the source; they are usually repeats but may differ in a detail not shown here. Equal values may be shown once. Values belong to the compound of their own block, whether it stands above or below them.
Assay: Photostationary state (cis/trans) composition in solution by HPLC, UV-vis or 1H NMR
Format: physicochemical
Conditions: for % of trans in solution: Fig. 5J; for % of cis in solution: Figure 5E
From the text: To characterize the photochemical properties of OptoNAM-3, we focused on the three key properties allowing the use of azobenzenes in biological systems: (i) wavelengths for trans-to-cis and cis-to-trans conversions; (ii) compound thermalstability, i.e., half-life of the cis isomer in the dark; and (iii) fatigability, i.e., the number of illumination cycles that the molecule can undergo without degradation. To this aim, we acquired UV–visible absorption spectra of OptoNAM-3 diluted in Xenopus oocyte recording solution (Ringer pH 7.3; see Methods) either in the dark (absence of illumination) or after illumination by light wavelengths ranging from 350 to 580 nm (Figures 2B and S1M). In the dark (black curve in Figure 2B), the spectrum was characteristic of a trans isomer.[32] Application of UV light at a wavelength close to the main absorption peak of the trans form (365 or 350 nm) gave a completely different spectrum (violet curves in Figure 2B), characteristic of azobenzenes in their cis configuration.[32] HPLC analysis of OptoNAM-3 in solution identified photostationary states (PSS) containing 100% trans in the dark, 82% cis and 18% residual trans after illumination at 365 nm (365 nm PSS, violet curve in Figure 2C), and 91% cis and 9% residual trans after illumination at 350 nm (350 nm PSS, lavender curve in Figure 2C). […] Irradiation of OptoNAM-3 365 nm PSS with wavelengths from 435 to 550 nm gave equivalent cis-to-trans conversions with 435 and 550 nm yielding slightly stronger conversions (∼70% trans after illumination at 435 and 550 nm calculated from UV–visible spectra at λtrans = 329 nm, Figures 2B and S1N; 550 nm PSS of 69% trans and 31% cis measured by HPLC, Figure 2C, green trace). 550 nm was chosen as the optimal wavelength since green light is less harmful for cells than lights of shorter wavelengths. We then tested the thermal stability of the cis form in the dark (in the absence of illumination). […] This very high stability is interesting because it avoids the prolonged use of light to maintain OptoNAM-3 in the desired configuration. OptoNAM-3 could finally endure many illumination cycles without degradation (Figure 2E).
UV–vis absorbance spectra were measured from in 1 cm long quartz cuvettes on a NanoPhotometer NP80 spectrometer (Implen, Germany). We used solutions of 10, 50, or 100 μM OptoNAMs diluted in Ringer at pH 7.3 (for TEVC extracellular recording solution, see below) from the 50 mM stock solution in DMSO. Photostationary states of OptoNAMs in Ringer for different illumination wavelengths were obtained by continuous illumination with multiwavelength LEDs (pE-2 and pE-4000, CoolLED, UK [power ∼75 mW]) or photochemical reactor RPR-100 Rayonet US (power ∼2 mW) for 350 nm, until no further change in the absorption spectra could be observed. For all irradiation wavelengths tested, 10 min illumination was sufficient to reach the steady state.
The cis–trans compositions of OptoNAM-3 in the dark and after illumination by 365, 350, and 550 nm were determined by HPLC using the relative integrated areas of the cis and trans peaks at the isosbestic point at 280 nm, […], considering that the sum of integrated area for two peaks is 100%. We checked that ratios measured at the isosbestic point at 390 nm were similar. Analytical HPLC was performed on an Agilent 1200 series equipped with a quaternary pump using a Nucleodur C18 HTech column from Macherey-Nagel Inc. (particle size 3 μm, 150 × 4.6 mm column). The compounds were eluted with a flow of 1 mL/min using a gradient of acetonitrile (0–100% over 15 min) in water, with both solvents containing 0.1% TFA. Detection was performed at 220, 280, and 390 nm.
The dark and 365 nm PSS were furthermore characterized by ^1H NMR spectroscopy with the OptoNAMs diluted in DMSO-d6 and the relative abundance of trans and cis isomers quantified using ^1H NMR spectra. […]

[1] = physiological buffer, UV-visible, measured at λtrans
[2] = HPLC, physiological aqueous buffer
[3] = in solution, UV-visible spectra
[4] = in solution, calculated from UV-visible spectra at 329 nm

trans after 490 nm irradiation of the 365 nm PSS [1]: ~ 52%
SMILES: Cc1cc(N)nc(/N=N/c2ccccc2)c1 [OptoNAM-2, (E)-4-methyl-6-(phenyldiazenyl)pyridin-2-amine]

trans after 440 nm irradiation of the 365 nm PSS [1]: 100%
SMILES: CS(=O)(=O)Nc1ccc2nc(Cc3ccc(/N=N/c4ccccc4)cc3)[nH]c2c1 [OptoNAM-4, (E)-N-(2-(4-(phenyldiazenyl)benzyl)-1H-benzo[d]imidazol-6-yl)methanesulfonamide]

trans after 440 nm irradiation of the 365 nm PSS [1]: ~ 75%
SMILES: Nc1ccnc(/N=N/c2ccccc2)c1 [OptoNAM-1, (E)-2-(phenyldiazenyl)pyridin-4-amine]

365 nm PSS, cis, in DMSO (DMSO, 1H NMR): 90%
% of trans in solution (365 nm): 18.030%
% of trans in solution (385 nm): 53.274%
% of trans in solution (435 nm): 71.738%
% of trans in solution (460 nm): 68.781%
% of trans in solution (490 nm): 68.847%
% of trans in solution (525 nm): 62.601%
% of trans in solution (550 nm): 70.739%
% of trans in solution (580 nm): 68.208%
% of cis in solution (365 nm): 82.000%
% of cis in solution (385 nm): 48.439%
% of cis in solution (435 nm): 30.261%
% of cis in solution (460 nm): 30.902%
% of cis in solution (490 nm): 32.185%
% of cis in solution (525 nm): 29.192%
% of cis in solution (550 nm): 27.267%
% of cis in solution (580 nm): 25.128%
550 nm PSS, cis (HPLC): 31%
550 nm PSS, trans (HPLC): 69%
PSS in the dark, trans (HPLC, aqueous solution): 100%
350 nm PSS, cis [2]: 91%
350 nm PSS, residual trans [2]: 9%
365 nm PSS, residual trans [2]: 18%
365 nm PSS, cis (HPLC, physiological aqueous buffer (free OptoNAM-3)): 82%
cis after 460 nm illumination of the dark PSS [3]: ~31%
cis after 550 and 580 nm illumination of the dark PSS [3]: ~30%
trans after 460 nm illumination of the 365 nm PSS [3]: 69%
trans after 435 nm illumination of the 365 nm PSS [4]: ~70% and 72%
trans after 550 nm illumination of the 365 nm PSS [4]: ~70%
SMILES: c1ccc(/N=N/c2ccc(CCNc3ccncc3)cc2)cc1 [OptoNAM-3, (E)-N-(4-(Phenyldiazenyl)phenethyl)pyridin-4-amine]

Source: publication PMC11413854, “Reversible Control of Native GluN2B-Containing NMDA Receptors with Visible Light” (ACS Chemical Neuroscience, 2024)
